Reference: US4717767A, “7-amino-3-(pyrazinylmethyl) or (pyridazinylmethyl)-cephalosporins” (Toyama Chemical Co., Ltd., priority 1982, dated 1988)
In brackets after ≈: the same amount, converted by molar mass. Where a name gives a salt, the structure may show the parent alone. Read-outs that look alike come from different tables or passages of the source.

Tests used:
Format in all cases: cell-based
E. coli TK-3 = assay: Antibacterial activity (MIC), E. coli TK-3; conditions: Escherichia coli
From the text: (§1) The amount of the inoculated bacteria was 10^4 cells/plate (10^6 cells/ml).

Pro. mirabilis T-111 = assay: Antibacterial activity (MIC), Pro. mirabilis T-111; conditions: Proteus mirabilis
From the text: as §1

Ser. marcescens W-134 = assay: Antibacterial activity (MIC), Ser. marcescens W-134; conditions: Serratia marcescens
From the text: as §1

Kl. pneumoniae Y-50 = assay: Antibacterial activity (MIC), Kl. pneumoniae Y-50; conditions: Klebsiella pneumoniae, Y50; Heart Infusion agar, 37° C., 20 hours, 10^6 cells/ml
From the text: as §1

E. coli NIHJ = assay: Antibacterial activity (MIC), E. coli NIHJ; conditions: Escherichia coli; Heart Infusion agar, 37° C., 20 hours, 10^4 cells/plate (10^6 cells/ml)
From the text: as §1

Pro. morganii T-216 = assay: Antibacterial activity (MIC), Pro. morganii T-216; conditions: Morganella morganii, T216; Heart Infusion agar, 37° C., 20 hours, 10^6 cells/ml
From the text: as §1

Pro. vulgaris GN76 = assay: Antibacterial activity (MIC), Pro. vulgaris GN76; conditions: Proteus vulgaris, cephalosporinase-producing strain, Heart Infusion agar, 37° C., 20 hours, 10^6 cells/ml
From the text: as §1

Ser. marcescens IID620 = assay: Antibacterial activity (MIC), Ser. marcescens IID620; conditions: Serratia marcescens
From the text: as §1

Cit. freundii N-7 = assay: Antibacterial activity (MIC), Cit. freundii N-7; conditions: Citrobacter freundii
From the text: as §1

Ps. aeruginosa GN918 = assay: Antibacterial activity (MIC), Ps. aeruginosa GN918; conditions: Pseudomonas aeruginosa, cephalosporinase-producing strain, Heart Infusion agar, 37° C., 20 hours, 10^6 cells/ml
From the text: as §1

Kl. pneumoniae Y-4 = assay: Antibacterial activity (MIC), Kl. pneumoniae Y-4; conditions: Klebsiella pneumoniae, Y4; penicillinase-producing strain; Heart Infusion agar, 37° C., 20 hours, 10^6 cells/ml
From the text: as §1

Kl. pneumoniae Y-41 = assay: Antibacterial activity (MIC), Kl. pneumoniae Y-41; conditions: Klebsiella pneumoniae, Y41; Heart Infusion agar, 37° C., 20 hours, 10^6 cells/ml
From the text: as §1

[1] = TK3, penicillinase-producing strain, Heart Infusion agar, 37° C., 20 hours, 10^6 cells/ml, read-out: MIC
[2] = T111, Heart Infusion agar, 37° C., 20 hours, 10^6 cells/ml, read-out: MIC
[3] = IID620, Heart Infusion agar, 37° C., 20 hours, 10^6 cells/ml, read-out: MIC
[4] = N7, Heart Infusion agar, 37° C., 20 hours, 10^6 cells/ml, read-out: MIC
[5] = W134, Heart Infusion agar, 37° C., 20 hours, 10^6 cells/ml, read-out: MIC

Row | Compound | MIC (E. coli TK-3; [1]) [µg/mL] | MIC (Pro. mirabilis T-111; [2]) [µg/mL] | MIC (Ser. marcescens W-134; W134, 20 h) [µg/mL] | MIC (Kl. pneumoniae Y-50) [µg/mL] | MIC (E. coli NIHJ) [µg/mL] | MIC (Pro. morganii T-216) [µg/mL] | MIC (Pro. vulgaris GN76) [µg/mL] | MIC (Ser. marcescens IID620; [3]) [µg/mL] | MIC (Cit. freundii N-7; [4]) [µg/mL] | MIC (Ps. aeruginosa GN918) [µg/mL] | MIC (Kl. pneumoniae Y-4) [µg/mL] | MIC (Kl. pneumoniae Y-41) [µg/mL] | MIC (Ser. marcescens W-134; [5]) [µg/mL] | MIC (Cit. freundii N-7; N7, 20 h) [µg/mL] | MIC (Pro. mirabilis T-111; T111, 20 h) [µg/mL] | MIC (Ser. marcescens IID620; IID620, 20 h) [µg/mL] | MIC (E. coli TK-3; TK3, 20 h) [µg/mL]
1 | CO/N=C(\C(=O)NC1C(=O)N2C(C(=O)O)=C(Cn3nc(C)ccc3=O)CSC12)c1csc(N)n1 (stereo not drawn) [M, trifluoroacetic acid salt of 7-[2-(2aminothiazol-4-yl)-2-(syn)-methoxyiminoacetamido]-3-{[1-(3-methyl-6-oxo-1,6-dihydropyridazinyl)]methyl}-Δ^3-cephem-4-carboxylic acid] | 0.2 | 0.2 | 0.78 | 0.2 | ≤ 0.1 | 0.2 | 0.2 | 0.2 | 0.78 | – | – | – | – | – | – | – | –
2 | CN(C)n1ccn(CC2=C(C(=O)O)N3C(=O)C(NC(=O)/C(=N\OCC(=O)O)c4csc(N)n4)C3SC2)c(=O)c1=O (stereo not drawn) [I, trifluoroacetic acid salt of 7-[2-(2-aminothiazol-4-yl)-2-(syn)-carboxymethoxyiminoacetamido]-3-{[1-(4-dimethylamino-2,3-dioxo-1,2,3,4-tetrahydropyrazinyl)]methyl}-Δ^3-cephem-4-carboxylic acid] | ≤ 0.1 | ≤ 0.1 | ≤ 0.1 | 0.2 | ≤ 0.1 | ≤ 0.1 | ≤ 0.1 | ≤ 0.1 | 1.56 | 12.5 | 0.39 | 0.2 | – | – | – | – | –
3 | CCn1ccn(CC2=C(C(=O)O)N3C(=O)C(NC(=O)/C(=N\OCC(=O)O)c4csc(N)n4)C3SC2)c(=O)c1=O (stereo not drawn) [H, trifluoroacetic acid salt of 7-[2-(2-aminothiazol-4-yl)-2-(syn)-carboxymethoxyiminoacetamido]-3-{[1-(4-ethyl-2,3-dioxo-1,2,3,4-tetrahydropyrazinyl)]methyl}-Δ^3-cephem-4-carboxylic acid] | ≤ 0.1 | ≤ 0.1 | – | 0.2 | ≤ 0.1 | ≤ 0.1 | ≤ 0.1 | ≤ 0.1 | 1.56 | 6.25 | 0.2 | ≤ 0.1 | ≤ 0.1 | – | – | – | –
4 | Cc1ccc(=O)n(CC2=C(C(=O)O)N3C(=O)C(NC(=O)/C(=N\OCC(=O)O)c4csc(N)n4)C3SC2)n1 (centres unmarked) [N] | 0.2 (≈ 0.364 µM) | ≤ 0.1 | – | 0.39 (≈ 0.71 µM) | ≤ 0.1 | ≤ 0.1 | ≤ 0.1 | ≤ 0.1 | – | – | – | – | ≤ 0.1 | 0.78 (≈ 1.42 µM) | – | – | –
5 | CO/N=C(\C(=O)NC1C(=O)N2C(C(=O)O)=C(Cn3ccn(C(C)C)c(=O)c3=O)CSC12)c1csc(N)n1 (stereo not drawn) [D, trifluoroacetic acid salt of 7-[2-(2-aminothiazol-4-yl)-(syn)-methoxyiminoacetamido]-3-{[1-(4-isopropyl-2,3-dioxo-1,2,3,4-tetrahydropyrazinyl)]methyl}-Δ^3-cephem-4-carboxylic acid] | ≤ 0.1 | – | – | ≤ 0.1 | ≤ 0.1 | ≤ 0.1 | 0.39 | ≤ 0.1 | 1.56 | – | 0.39 | ≤ 0.1 | ≤ 0.1 | – | 0.2 | – | –
6 | CO/N=C(\C(=O)NC1C(=O)N2C(C(=O)O)=C(Cn3ccn(N(C)C)c(=O)c3=O)CSC12)c1csc(N)n1 (stereo not drawn) [E, trifluoroacetic acid salt of 7-[2-(2-aminothiazol-4-yl)-2-(syn)-methoxyiminoacetamido]-3-{[1-(4-dimethylamino-2,3-dioxo-1,2,3,4-tetrahydropyrazinyl)]-methyl}-Δ^3-cephem-4-carboxylic acid] | ≤ 0.1 | ≤ 0.1 | – | ≤ 0.1 | ≤ 0.1 | ≤ 0.1 | 1.56 | ≤ 0.1 | 0.78 | – | ≤ 0.1 | ≤ 0.1 | ≤ 0.1 | – | – | – | –
7 | CCn1ccn(CC2=C(C(=O)O)N3C(=O)C(NC(=O)/C(=N\OC)c4csc(N)n4)C3SC2)c(=O)c1=O (stereo not drawn) [C, trifluoroacetic acid salt of 7-[2-(2-aminothiazol-4-yl)-2-(syn)-methoxyiminoacetamido]-3-{[1-(4-ethyl-2,3-dioxo-1,2,3,4-tetrahydropyrazinyl)]methyl}-Δ^3-cephem-4-carboxylic acid] | ≤ 0.1 | ≤ 0.1 | – | ≤ 0.1 | ≤ 0.1 | ≤ 0.1 | 1.56 | ≤ 0.1 | 0.78 | 6.25 | ≤ 0.1 | ≤ 0.1 | ≤ 0.1 | – | – | – | –
8 | Cn1ccn(CC2=C(C(=O)O)N3C(=O)C(NC(=O)/C(=N\OCC(=O)O)c4csc(N)n4)C3SC2)c(=O)c1=O (centres unmarked) [G] | 0.2 (≈ 0.354 µM) | ≤ 0.1 | – | 0.2 (≈ 0.354 µM) | ≤ 0.1 | ≤ 0.1 | ≤ 0.1 | ≤ 0.1 | 1.56 (≈ 2.76 µM) | – | 0.2 (≈ 0.354 µM) | ≤ 0.1 | ≤ 0.1 | – | – | – | –
9 | Nc1nc(/C(=N/OCC(=O)O)C(=O)NC2C(=O)N3C(C(=O)O)=C(Cn4cc[nH]c(=O)c4=O)CSC23)cs1 (stereo not drawn) [F, 7-[2-(2-aminothiazol-4-yl)-2-(syn)-carboxymethoxyiminoacetamido]-3-{[1-(2,3-dioxo-1,2,3,4-tetrahydropyrazinyl)]methyl}-Δ^3-cephem-4-carboxylic acid] | ≤ 0.1 | ≤ 0.1 | ≤ 0.1 | ≤ 0.1 | ≤ 0.1 | ≤ 0.1 | ≤ 0.1 | ≤ 0.1 | 0.78 (≈ 1.41 µM) | – | 0.2 (≈ 0.363 µM) | 0.39 (≈ 0.707 µM) | – | – | – | – | –
10 | CO/N=C(\C(=O)NC1C(=O)N2C(C(=O)O)=C(Cn3ccn(C)c(=O)c3=O)CSC12)c1csc(N)n1 (stereo not drawn) [B, trifluoroacetic acid salt of 7-[2-(2-aminothiazol-4yl)-2-(syn)-methoxyiminoacetamido]-3-{[1-(4-methyl-2,3-dioxo-1,2,3,4-tetrahydropyrazinyl)]methyl}-Δ^3-cephem-4-carboxylic acid] | ≤ 0.1 | ≤ 0.1 | – | ≤ 0.1 | ≤ 0.1 | ≤ 0.1 | 0.2 | ≤ 0.1 | 1.56 | 25 | 0.2 | ≤ 0.1 | ≤ 0.1 | – | – | – | –
11 | Nc1nc(/C(=N/OCC(=O)O)C(=O)NC2C(=O)N3C(C(=O)O)=C(Cn4[nH]c(=O)ccc4=O)CSC23)cs1 (stereo not drawn) [L, formic acid salt of 7-[2-(2-aminothiazol-4-yl)-2-(syn)-carboxymethoxyiminoacetamido]-3-{[1-(3,6-dioxo-1,2,3,6-tetrahydropyridazinyl)]methyl}-Δ^3-cephem-4-carboxylic acid] | 0.78 | ≤ 0.1 | ≤ 0.1 | 0.78 | ≤ 0.1 | ≤ 0.1 | ≤ 0.1 | – | – | – | – | – | – | 3.13 | – | 1.56 | –
12 | CO/N=C(\C(=O)NC1C(=O)N2C(C(=O)O)=C(Cn3[nH]c(=O)ccc3=O)CSC12)c1csc(N)n1 (stereo not drawn) [K, trifluoroacetic acid salt of 7-[2-(2-aminothiazol-4-yl)-2-(syn)-methoxyiminoacetamido]-3-{[1-(3,6-dioxo-1,2,3,6-tetrahydropyridazinyl)]methyl}-Δ^3-cephem-4-carboxylic acid] | – | ≤ 0.1 | – | ≤ 0.1 | ≤ 0.1 | ≤ 0.1 | ≤ 0.1 | ≤ 0.1 | – | – | – | – | ≤ 0.1 | 0.78 | – | – | 0.2
13 | CO/N=C(\C(=O)NC1C(=O)N2C(C(=O)O)=C(Cn3cc[nH]c(=O)c3=O)CSC12)c1csc(N)n1 (stereo not drawn) [A, trifluoroacetic acid salt of 7-[2-(2-aminothiazol-4-yl)-2-(syn)-methoxyiminoacetamido]-3-{[1-(2,3-dioxo-1,2,3,4-tetrahydropyrazinyl)]methyl}-Δ^3-cephem-4-carboxylic acid] | ≤ 0.1 | ≤ 0.1 | – | ≤ 0.1 | ≤ 0.1 | ≤ 0.1 | ≤ 0.1 | ≤ 0.1 | 0.39 | 12.5 | ≤ 0.1 | ≤ 0.1 | ≤ 0.1 | – | – | – | –
14 | CO/N=C(\C(=O)NC1C(=O)N2C(C(=O)O)=C(Cn3ccncc3=O)CSC12)c1csc(N)n1 (stereo not drawn) [J, trifluoroacetic acid salt of 7-[2-(2-aminothiazol-4-yl)-2-(syn)-methoxyiminoacetamido]-3-{[1-(2-oxo-1,2-dihydropyrazinyl)]methyl}-Δ^3-cephem-4-carboxylic acid] | 0.2 | 0.2 | 0.39 | ≤ 0.1 | ≤ 0.1 | ≤ 0.1 | 0.78 | – | 0.78 | – | – | – | – | – | – | ≤ 0.1 | –
